Series [1] in a line: Body weight changes in mice after IP administration. It counts as in vivo. Conditions: 10 and 50 mg/kg, 7 days. The method, then:
After U2OS cells were treated with various concentrations (0 ~ 50 μM) of SR1078,
Body weight changes (%) in […]

The next series relates to C57 mice. Put plainly: Mouse locomotor assay. The following applies: 10 mg/kg IP at ZT11, D:D, compared to DMSO. It counts as in vivo. The method, then: WT C57BL/6 J mice at the age of 2 months old were entrained under a 12-h /12-h […] at 24 °C for 2 weeks.[36] One week after mouse clock synchronization to the ambient light/dark cycle, SR1078, Gala-SR or dimethyl sulfoxide (DMSO) was dissolved in saline and intraperitoneally injected (10 mg/kg) into mice 1 h before light off (ZT11). […] SR1078, Gala-SR or DMSO was injected again 24 h later. After 2 weeks of continuous recording, locomotor activity was analyzed with ClockLab software (Actimetrics) following the procedures described previously34.

Series [2] addresses T1, RORα (Homo sapiens, UniProt P35398).
T1 construct: HEK293T cells co-transfected with a full-length RORα gene and a luciferase reporter gene; expressed in transfected cells; host or cells: HEK293T
T1 sequence (P35398 1-523): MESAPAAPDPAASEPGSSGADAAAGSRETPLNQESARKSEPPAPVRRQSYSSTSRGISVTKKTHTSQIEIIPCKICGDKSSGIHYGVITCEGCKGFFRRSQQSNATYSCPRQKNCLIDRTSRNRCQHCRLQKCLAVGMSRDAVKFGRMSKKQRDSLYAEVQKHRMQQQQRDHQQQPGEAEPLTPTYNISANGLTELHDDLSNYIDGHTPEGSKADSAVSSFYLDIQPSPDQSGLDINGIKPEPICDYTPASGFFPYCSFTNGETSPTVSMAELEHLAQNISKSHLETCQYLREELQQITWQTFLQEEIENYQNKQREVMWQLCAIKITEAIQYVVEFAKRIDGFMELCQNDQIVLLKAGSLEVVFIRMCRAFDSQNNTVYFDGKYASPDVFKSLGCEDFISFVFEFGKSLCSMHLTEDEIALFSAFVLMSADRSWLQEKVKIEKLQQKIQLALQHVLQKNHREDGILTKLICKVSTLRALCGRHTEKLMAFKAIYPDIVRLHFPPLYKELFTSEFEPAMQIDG
Put plainly: G6Pase and FGF21 mRNA in HEK293T cells after RORα knockdown by siRNA. The format is cell-based. Conditions: 5 μmol/L, 24 h. How it is done: RNA from liver, periodontal tissues and cell samples was prepared as previously described. Total RNA (1 ug) was synthesized into cDNA using […] (Vazyme). mRNA expression levels were normalized to GAPDH. Relative expression levels and enrichment contents were calculated using the comparative Ct Method. Primer information is detailed in Data file S1.

Another series concerns BMAL1. Put plainly: BMAL1 immunofluorescence in synchronized U2OS cells. Conditions: 5 µmol/L. It counts as cell-based, human. The method, then:
U2OS cells were seeded on coverslips and treated with drugs for 24 h. After treatment, the cells were washed 3 times with PBS and fixed with 4% paraformaldehyde at room temperature for 15 min. The cells were then permeabilized with 0.1% Triton X-100 (diluted in PBS) and blocked with 5% BSA (diluted in PBS) at room temperature for 30 min. Primary antibodies were incubated overnight at 4 °C. The next day, the cells were washed 3 times with PBST and incubated with Cy3-conjugated Affinipure Goat Anti-Rabbit IgG(H + L) secondary antibody (1:200) at room temperature for one hour, with DAPI added to stain the nuclei. After washing 3 times with PBST, images were captured using a laser confocal microscope (Nikon A1-Si).

Series [3] concerns the target T1, RORα. Put plainly: Luciferase reporter assay (G6Pase or FGF21 promoter) in HEK293T cells cotransfected with RORα. Conditions: HEK293T, RORα; for luminescence of G6Pase and FGF21 luciferase reporters: vs DMSO. It counts as cell-based. How it is done:
HEK293T cells were transfected with Lipofectamine 8000 (ThermoFisher) strictly following the manufacturer’s instructions. Cotransfected HEK293T cells with RORα or RORγ plasmid and a reporter consisting of the G6Pase or FGF21 promoters upstream of a luciferase reporter gene. 500 ng plasmid DNA was transfected into each well of 24 well-plate 24 h after the transfection, DMSO or Gala-SR and SR1078 (5 µmol/L) was added and incubated for 24 h. The Lumicycle instrument detects luminescence and records the numerical value.
A general note: A reporter such as luciferase makes a cellular process visible.

Series [4] has as its system periodontitis mice with circadian rhythm disorders. Put plainly: Ligature-induced periodontitis in circadian rhythm disordered (jet lag) mice. It counts as in vivo. Conditions: for periodontal tissue destruction (HE staining): compared to DMSO-treated controls; for rhythmic expression of circadian genes in periodontal tissue: jet lag mice, 10 mg/kg IP daily for three weeks; for alveolar bone resorption (Micro-CT): jet lag periodontitis mice, 10 mg/kg IP daily, compared to DMSO; for IL-10-positive cell populations / NF-κB pathway mediators Tnf-α and Il-6: periodontal tissue; for TRAP-positive cell numbers (osteoclastic activity): relative to DMSO-treated periodontitis controls. The source says: Periodontitis has the highest incidence rate among all oral diseases and is a major cause of adult tooth loss. […] It is also reported that the inflammatory signaling pathways in periodontal tissue is over activated in periodontitis mice with circadian rhythm disorder.[40] Given this, we have substantial grounds to hypothesize that the restoration of circadian rhythms could potentially ameliorate periodontitis. According to our assumption, periodontal inflammation in circadian rhythm-disordered mice is more critical than in control mice under L:D conditions, resulting in a more severe alveolar bone resorption. Administration of Gala-SR and SR1078 is expected to restore the circadian rhythm, thereby alleviating the inflammation and reducing the alveolar bone absorption (Fig. 6a). […] The mice were initially subjected to a one-week L:D feeding regimen, followed by exposure to disordered conditions for four weeks. At the beginning of the third week, the mice received intraperitoneal injections of Gala-SR or SR1078 (10 mg/kg) or the equivalent amount of DMSO utilized to dissolve these modulators every day for three consecutive weeks. Mice without any treatment and mice treated with DMSO but kept in L:D condition were also set for controls. By the end of the fourth week, a ligature-induced periodontitis model was established as previously described,[39] and samples at different time points were collected one week later for subsequent tests (Fig. 6b).
Alveolar bones were harvested from mice and fixed after removal of soft tissues. The bones were then scanned at a resolution of 9 μm using Micro-CT (SkyScan 1176, Bruker). Images were reconstructed and quantified using InstaRecon/NRecon Research Workplace software. Metrics such as bone volume/total volume, trabecular thickness, bone surface area/bone volume, trabecular number, trabecular separation, and buccal-lingual alveolar bone resorption were used to assess differences among the mice.
Male C57BL/6 mice,[40] 2 months old, were housed under disrupted conditions for 4 weeks. From the third week, they were intraperitoneally injected with Gala-SR, SR1078, or DMSO for 3 weeks. In the fifth week, general anesthesia was administered via intraperitoneal injection of pentobarbital sodium (40 mg/kg), and a ligature was placed around the cervix of the maxillary second molar to establish the murine periodontitis model. Collect gingival tissue and liver tissue every 6 h continuously for a duration of 48 h.

The nature of a further series: Kinetic solubility test. It counts as physicochemical. The following applies: water, 25 °C, kinetic from dmso stock. The source says:
Solubility(μmol/L)=Areafiltered×DFfiltered/Areastd×DFstd×[std]×DFstd

≈ marks a conversion by molar mass, not a printed value.

On to `O=C(Nc1ccc(C(OCO[C@@H]2O[C@H](CO)[C@H](O)[C@H](O)[C@H]2O)(C(F)(F)F)C(F)(F)F)cc1)c1ccc(C(F)(F)F)cc1` [Gala-SR], for which the “systemic toxicity (body weight changes)” value in series [1] is given as “reduced systematic toxicity”. For the same compound, the “activity rhythm (amplitude) and total activity” value in the series with C57 mice is “significantly increased”. In addition, the “activation of G6Pase and FGF21 transcription after RORα knockdown” value on RORα [2] is on record as “markedly hampered the activation”. Moreover, in the series with BMAL1, the “expression of BMAL1 (immunofluorescence)” value is “enhance the expression of BMAL1”. Further, on RORα [3] (5 μmol/L), the “expression of G6Pase and FGF21 luciferase reporter genes compared to SR1078” value is given as “substantially elevated expression”; the “luminescence of G6Pase and FGF21 luciferase reporters” value was “marked augmentation in the luminescence”. The “activation of luciferase reporters, with galactosidase inhibitor” value on RORα [3] (5 μmol/L Gala-SR + β-galactosidase inhibitor, vs Gala-SR alone) was “significantly decreased compared to the original level”. Also, the “expression of G6Pase and FGF21 luciferase reporter genes, combined with galactosidase” value at RORα [3] (5 μmol/L Gala-SR + β-galactosidase, vs Gala-SR alone) was “significantly enhanced expression”. In addition, in series [4], the “periodontal tissue destruction (HE staining)” value is recorded as “attenuated periodontal tissue destruction”, the “rhythmic expression of circadian genes in periodontal tissue” value is reported as “restored their rhythmic expression”, the “alveolar bone resorption (Micro-CT)” value was “significantly reduced alveolar bone resorption” and the IL-10-positive cell populations result is “markedly increased”. In series [4], the “NF-κB pathway mediators Tnf-α and Il-6” value was “significantly downregulated”; the “TRAP-positive cell numbers (osteoclastic activity)” value was “marked reduction”. The kinetic solubility (commonly solubility judged after dilution from a stock solution rather than from solid) at 2 h in “Kinetic solubility test” came out at 282 µM (≈ 176 µg/mL).

In the case of `O=C(Nc1ccc(C(O)(C(F)(F)F)C(F)(F)F)cc1)c1ccc(C(F)(F)F)cc1` [SR1078, reference compound], in series [1], the “systemic toxicity (body weight changes)” value is on record as “dose-dependent toxicity”. Also, the “activity rhythm (amplitude) and total activity” value in the series with C57 mice is reported as “significantly increased”. For the same compound, the “activation of G6Pase and FGF21 transcription after RORα knockdown” value at RORα [2] is given as “markedly hampered the activation”. For the same compound, in the series with BMAL1, the “expression of BMAL1 (immunofluorescence)” value is on record as “enhance the expression of BMAL1”. The “luminescence of G6Pase and FGF21 luciferase reporters” value on RORα [3] (5 μmol/L) was “marked augmentation in the luminescence”. Moreover, in series [4], the “periodontal tissue destruction (HE staining)” value was “attenuated periodontal tissue destruction”, the “rhythmic expression of circadian genes in periodontal tissue” value was “restored their rhythmic expression”, the “alveolar bone resorption (Micro-CT)” value was “significantly reduced alveolar bone resorption” and the IL-10-positive cell populations entry was “markedly increased”. In series [4], the “NF-κB pathway mediators Tnf-α and Il-6” value is given as “significantly downregulated”; the “TRAP-positive cell numbers (osteoclastic activity)” value was “marked reduction”. This compound also returned a solubility (kinetic) at 2 h in “Kinetic solubility test” of 4.15 µM (≈ 1.79 µg/mL).
